What follows are compounds tested against T1, 12-lipoxygenase (Sus scrofa, UniProt P16469) (assay: 12-lipoxygenase inhibition in porcine leukocyte cytosol ([1-14C] arachidonic acid conversion to 12-HETE, TLC)). Conditions: porcine leukocyte cytosol 0.075 mg/mL, pH 8.0, 5 min preincubation, 5 μM arachidonic acid, 15 min at 37° C.
T1 construct: porcine Leukocyte cytosol in buffer; from tissue; host or cells: porcine leukocyte cytosol
T1 sequence (P16469 1-663): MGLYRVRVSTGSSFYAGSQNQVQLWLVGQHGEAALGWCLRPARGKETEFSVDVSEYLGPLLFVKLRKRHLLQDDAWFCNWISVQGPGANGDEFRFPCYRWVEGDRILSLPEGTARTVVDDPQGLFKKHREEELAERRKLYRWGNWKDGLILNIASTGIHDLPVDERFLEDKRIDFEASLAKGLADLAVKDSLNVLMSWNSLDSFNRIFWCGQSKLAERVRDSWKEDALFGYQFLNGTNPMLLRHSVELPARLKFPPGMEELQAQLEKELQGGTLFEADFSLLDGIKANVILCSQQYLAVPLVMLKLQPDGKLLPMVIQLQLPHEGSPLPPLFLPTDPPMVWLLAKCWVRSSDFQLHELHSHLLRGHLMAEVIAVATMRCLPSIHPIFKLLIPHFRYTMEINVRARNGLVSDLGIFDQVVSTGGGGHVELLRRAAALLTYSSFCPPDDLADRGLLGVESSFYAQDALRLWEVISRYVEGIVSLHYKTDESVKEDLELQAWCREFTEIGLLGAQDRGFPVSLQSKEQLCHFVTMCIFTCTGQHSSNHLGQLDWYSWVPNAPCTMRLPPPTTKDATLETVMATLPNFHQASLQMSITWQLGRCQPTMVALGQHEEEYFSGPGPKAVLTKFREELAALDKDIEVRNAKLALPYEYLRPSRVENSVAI
Assay type: biochemical
Experimental: The standard assay procedure is as follows:
Compounds of the present invention were added in 3 μL of DMSO at an appropriate concentration to porcine Leukocyte cytosol in buffer (final protein concentration of 0.075 mg/mL in 0.1M HEPES, 2 mM caCl2, 1 mM MgCl2, pH=8.0) and preincubated for 5 min at 37° C. [1-^14 C] arachidonic acid was added (final concentration of 5 μM) and the reactions were incubated for 15 min at 37° C. and terminated by the addition of HCl. Total reaction volume was 100 μL. Assays also included reduced glutathione in the assay at 25 μM or following the assay at 1 mM and/or cold carrier 12-HETE and arachidonic acid added at the end of the incubation at concentrations of 5 and 100 μM, respectively. Sample was extracted with water-saturated ethyl acetate and the extracts were spotted onto TLC plates. The plates were developed with dichloromethane/ethyl acetate/acetic acid in a ratio of 70:30:1. Under these conditions, the Rf's of 12-HETE and arachidonic acid are 0.30 and 0.45 , respectively. The percentage conversion to 12-HETE was calculated from the percentage of the total ^14 C on the TLC plate that coelutes with a standard of 12-HETE.

| Compound | IC50 [µM] |
| --- | --- |
| CCCCCCCCCCCCCC[C@@H]1[C@H](c2ccccc2)CCC(=O)N1O (relative stereo) [1(cc), cis-1-Hydroxy-5-phenyl-6-tetradecyl-piperidin-2-one] | 0.74 |
| O=C1C(c2ccccc2)CC(CCCc2ccccc2)CN1O (stereo not shown) [1(yy), 1-Hydroxy-3-phenyl-5-(3-phenylpropyl)-piperidin-2-one] | 0.52 |
| O=C1CC(CCc2ccccc2)C(c2ccccc2)CN1O (stereo not shown) [1(qq), 1-Hydroxy-5-phenyl-4-(2-phenylethyl)-piperidin-2-one] | 1 |
| CCCCCCCCCCCC[C@H]1C[C@H](c2ccccc2)CC(=O)N1O (relative stereo) [1(e), trans-1-hydroxy-6-dodecyl-4-phenylpiperidin-2-one] | 0.5 |
| O=C1CC(CCc2ccccc2)C(Cc2ccccc2)CN1O (stereo not shown) [1(rr), 5-Benzyl-1-hydroxy-4-(2-phenylethyl)-piperidin-2-one] | 1.6 |
| CCCCCCCCCCCC[C@H]1[C@H](c2ccccc2)CCC(=O)N1O (relative stereo) [1(z), trans-6-Dodecyl-1-hydroxy-5-phenyl-piperidin-2-one] | 0.8 |
| CCCCCCCCCCCC[C@@H]1C[C@H](Cc2ccccc2)CC(=O)N1O (relative stereo) [1(ll), cis-4-Benzyl-6-dodecyl-1-hydroxy-piperidin-2-one] | 0.8 |
| O=C1C[C@@H](CCCc2ccccc2)C[C@@H](c2ccccc2)N1O (relative stereo) [1(ddd), cis-1-Hydroxy-6-phenyl-4-(3-phenylpropyl)-piperidin-2-one] | 4.2 |

Other lines, results leading:

| IC50 [µM] | Compound |
| --- | --- |
| 0.5 | O=C1C[C@H](c2ccccc2)C[C@H](CCCCCCCc2ccccc2)N1O (relative stereo) [1(l), cis-1-hydroxy-4-phenyl-6-(7-pheylheptyl)-iperidin-2-one] |
| 0.4 | CCCCCCCCC[C@@H]1CC(=O)N(O)C[C@@H]1c1ccccc1 (relative stereo) [1(ss), cis-1-Hydroxy-4-nonyl-5-phenyl-piperidin-2-one] |
| 0.09 | CCCCCCCC[C@@H]1C[C@H](c2ccc3ccccc3c2)CC(=O)N1O (relative stereo) [1(p), cis-1-hydroxy-4-(2-naphthyl)-6-octylpiperidin-2-one] |
| 0.39 | O=C1C[C@@H](c2ccccc2)C[C@H](CCCc2ccccc2)N1O (relative stereo) [1(k), trans-1-hydroxy-4-phenyl-6-(3-phenylpropyl)-piperidin-2-one] |
| 0.2 | O=C1C[C@@H](c2ccccc2)C[C@H](CCCCCCCc2ccccc2)N1O (relative stereo) [1(m), trans-1-hydroxy-4-phenyl-6-(7-phenylheptyl)-piperidin-2-one] |
| 0.3 | CCCCCCCCCCCCCC[C@@H]1C[C@H](c2ccccc2)CC(=O)N1O (relative stereo) [1(f), cis-1-hydroxy-4-phenyl-6-tetradecyl-piperidin-2-one] |
| 0.1 | CCCCCCCC[C@H]1C[C@H](c2ccc3ccccc3c2)CC(=O)N1O (relative stereo) [1(q), trans-1-hydroxy-4-(2-naphthyl)-6-octylpiperidin-2-one] |
| 0.4 | CCCCCCCCCCCCCC[C@H]1C[C@H](c2ccccc2)CC(=O)N1O (relative stereo) [1(g), trans-1-hydroxy-4-phenyl-6-tetradecyl-piperidine-2-one] |
